TGI data for 15 compounds are collected here from PubChem BioAssay (NCI).

Some test systems named below: A549 NSCLC; SF-268 CNS; OVCAR-4 ovarian; OVCAR-8 ovarian; HOP-92 NSCLC; HCT-15 colon; MDA-N; SF-295 CNS; NCI-H460 lung; HCT-116 colon; MCF7 breast; CAKI-1 renal; LOX IMVI melanoma.
Holding throughout (test): NCI tumour cell line growth inhibition, 48 h

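Each compound was tested at five concentrations against cells in 96-well plates for 48 hours. TGI: concentration producing complete growth inhibition.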

On to `N#Cc1nc(C#N)n(S(=O)(=O)c2ccccc2)c1NS(=O)(=O)c1ccccc1`, for which the TGI with A549 NSCLC, with SF-268 CNS, in the experiment with OVCAR-4 ovarian, in the experiment on OVCAR-8 ovarian, in the experiment with HOP-92 NSCLC and with HCT-15 colon was > 100 µM in each case. For the same compound, the TGI in the experiment with MDA-N was > 100 µM; with SF-295 CNS, > 100 µM; with NCI-H460 lung, > 100 µM; in the experiment on HCT-116 colon, > 100 µM; in the experiment on MCF7 breast it was > 100 µM; in the experiment with CAKI-1 renal it was > 57.7 µM. For the same compound, the TGI in the experiment with LOX IMVI melanoma is > 100 µM.
As for `CN(C)CCNC(=O)c1cccc2c(NC(CCC(N)=O)C(=O)O)c3ccccc3nc12` (stereo not given), the TGI was 64.6 µM in the experiment with A549 NSCLC; 28.3 µM with SF-268 CNS; 60.6 µM with OVCAR-4 ovarian; > 100 µM in the experiment on OVCAR-8 ovarian; > 100 µM with HOP-92 NSCLC; 22.5 µM in the experiment on HCT-15 colon. For the same compound, the TGI in the experiment on MDA-N is 31.4 µM; with SF-295 CNS, 25.5 µM; in the experiment with NCI-H460 lung, 54.9 µM; in the experiment on HCT-116 colon, > 100 µM; in the experiment on MCF7 breast, 51.3 µM; in the experiment with CAKI-1 renal, > 100 µM. Also, the TGI in the experiment with LOX IMVI melanoma is 35.6 µM.
`O=c1[nH]nc(-c2ccccc2)n1O`: the TGI in the experiment with A549 NSCLC, in the experiment on SF-268 CNS, with OVCAR-4 ovarian, in the experiment on OVCAR-8 ovarian, in the experiment on HOP-92 NSCLC and in the experiment with HCT-15 colon was > 100 µM throughout. The TGI with MDA-N, in the experiment on SF-295 CNS, in the experiment on NCI-H460 lung, in the experiment on HCT-116 colon, in the experiment with MCF7 breast and with CAKI-1 renal was > 100 µM in each case. Moreover, the TGI in the experiment on LOX IMVI melanoma was > 100 µM.
Take `c1ccc(CC2COC(c3cccs3)=N2)cc1` (stereo not given): the TGI in the experiment on A549 NSCLC, in the experiment on SF-268 CNS, in the experiment on OVCAR-4 ovarian, with OVCAR-8 ovarian, in the experiment with HOP-92 NSCLC and in the experiment on HCT-15 colon was > 100 µM throughout. Further, the TGI in the experiment with MDA-N is > 100 µM; in the experiment with SF-295 CNS, > 100 µM; in the experiment with NCI-H460 lung, > 100 µM; with HCT-116 colon, > 100 µM; in the experiment on MCF7 breast, > 31.6 µM; in the experiment with CAKI-1 renal, > 100 µM. Further, in the experiment with LOX IMVI melanoma, the TGI was > 100 µM.
For the compound `CC(C)(CCC(C)(C)N1OC1c1ccccc1)N1OC1c1ccccc1` (stereo not given), the TGI with A549 NSCLC, in the experiment on SF-268 CNS, with OVCAR-4 ovarian, with OVCAR-8 ovarian, with HOP-92 NSCLC and with HCT-15 colon was > 100 µM throughout. Moreover, the TGI with MDA-N is > 100 µM; with SF-295 CNS, > 100 µM; with NCI-H460 lung, > 100 µM; in the experiment with HCT-116 colon it was > 100 µM; with MCF7 breast, > 100 µM; in the experiment on CAKI-1 renal, 60.3 µM. The TGI in the experiment with LOX IMVI melanoma is > 100 µM.
For `O=C1Cc2c([nH]c3ccc(C(=O)O)cc23)-c2ccccc2N1`, the TGI in the experiment with A549 NSCLC, in the experiment with SF-268 CNS, in the experiment on OVCAR-4 ovarian, in the experiment with OVCAR-8 ovarian, with HOP-92 NSCLC and with HCT-15 colon was > 100 µM each time. The TGI in the experiment with MDA-N, in the experiment on SF-295 CNS, in the experiment with NCI-H460 lung, in the experiment with HCT-116 colon, in the experiment on MCF7 breast and in the experiment with CAKI-1 renal was > 100 µM each time. Besides, the TGI with LOX IMVI melanoma was > 100 µM.
With `CN(CCCNC(=O)c1cc(-c2ccccc2)nc2ccccc12)CCCNC(=O)c1cc(-c2ccccc2)nc2ccccc12`, the TGI with A549 NSCLC was found to be 15.3 µM; with SF-268 CNS, 14 µM; in the experiment with OVCAR-4 ovarian it was 11.3 µM; with OVCAR-8 ovarian it was 5.65 µM; with HOP-92 NSCLC, 9.85 µM; with HCT-15 colon, 12.2 µM. In addition, the TGI worked out at 3.28 µM with MDA-N; 3.31 µM in the experiment with SF-295 CNS; 3.81 µM with NCI-H460 lung; 3.33 µM in the experiment on HCT-116 colon; 3.2 µM with MCF7 breast; 22.7 µM with CAKI-1 renal. Further, the TGI in the experiment on LOX IMVI melanoma came to 3.56 µM.
`CO/N=C1/c2sccc2[C@H](NC(=O)C(Cc2ccccc2)NC(=O)OC(C)(C)C)[C@@H]1O` (stereo not given in full): the TGI with A549 NSCLC, in the experiment with SF-268 CNS, with OVCAR-4 ovarian, with OVCAR-8 ovarian, in the experiment with HOP-92 NSCLC and in the experiment with HCT-15 colon was > 100 µM in each case. Further, the TGI with MDA-N, in the experiment with SF-295 CNS, in the experiment with NCI-H460 lung, in the experiment on HCT-116 colon, in the experiment with MCF7 breast and with CAKI-1 renal was > 100 µM throughout. In the experiment on LOX IMVI melanoma, the TGI was > 100 µM.
`CCOC(=O)C1CCCCN1C(=O)Cc1c[nH]c2ccccc12` (stereo not given): the TGI in the experiment on A549 NSCLC, with SF-268 CNS, in the experiment with OVCAR-4 ovarian, in the experiment on OVCAR-8 ovarian, in the experiment on HOP-92 NSCLC and in the experiment on HCT-15 colon was > 100 µM throughout. Moreover, the TGI in the experiment with MDA-N, in the experiment on SF-295 CNS, with NCI-H460 lung, with HCT-116 colon, in the experiment with MCF7 breast and with CAKI-1 renal was > 100 µM in each case. The TGI in the experiment on LOX IMVI melanoma is > 100 µM.
Regarding `Nc1ccc(Nc2cc(=O)[nH]c(=O)[nH]2)cc1Cl`, the TGI in the experiment with A549 NSCLC, in the experiment on SF-268 CNS, with OVCAR-4 ovarian, in the experiment on OVCAR-8 ovarian, in the experiment with HOP-92 NSCLC and with HCT-15 colon was > 100 µM throughout. Also, the TGI in the experiment with MDA-N, in the experiment on SF-295 CNS, in the experiment with NCI-H460 lung, in the experiment with HCT-116 colon, in the experiment on MCF7 breast and with CAKI-1 renal was > 100 µM throughout. Besides, in the experiment with LOX IMVI melanoma, the TGI is > 100 µM.
Take `COc1cccc(/N=N/C(=NNC(=O)c2ccc(C)cc2)c2ccc(N(C)C)cc2)c1`: the TGI in the experiment with A549 NSCLC, with SF-268 CNS, with OVCAR-4 ovarian, in the experiment on OVCAR-8 ovarian, in the experiment on HOP-92 NSCLC and in the experiment on HCT-15 colon was > 100 µM throughout. Also, the TGI in the experiment on MDA-N, in the experiment with SF-295 CNS, in the experiment on NCI-H460 lung, with HCT-116 colon, in the experiment with MCF7 breast and with CAKI-1 renal was > 100 µM in each case. Besides, the TGI with LOX IMVI melanoma is > 100 µM.
As for `CC(C)/C(Cl)=N/OC(=O)Nc1ccc(Cl)c(Cl)c1`, the TGI was 43.4 µM in the experiment on A549 NSCLC; 34.8 µM in the experiment on SF-268 CNS; 22.5 µM in the experiment on OVCAR-4 ovarian; 32.9 µM with OVCAR-8 ovarian; 3.2 µM with HOP-92 NSCLC; 5.59 µM with HCT-15 colon. Also, the TGI in the experiment with MDA-N is 10.8 µM; in the experiment on SF-295 CNS it was 32.2 µM; in the experiment on NCI-H460 lung, 34 µM; in the experiment on HCT-116 colon it was 4.65 µM; in the experiment with MCF7 breast, 26.9 µM; in the experiment with CAKI-1 renal, 3.17 µM. In the experiment on LOX IMVI melanoma, this compound returned a TGI of 3.16 µM.
As for `Cc1cc2c(cc1C)[n+](=O)c(C(=O)c1ccccc1)c(C(F)(F)F)n2[O-]`, the TGI with A549 NSCLC is 3.88 µM; in the experiment on SF-268 CNS it was 7.71 µM; with OVCAR-4 ovarian, 1.71 µM; in the experiment on OVCAR-8 ovarian, > 26.8 µM; with HOP-92 NSCLC, 1.46 µM; with HCT-15 colon, > 34.4 µM. Moreover, the TGI worked out at 14.2 µM in the experiment on MDA-N; 10.6 µM in the experiment with SF-295 CNS; 2.98 µM in the experiment with NCI-H460 lung; 10.6 µM in the experiment on HCT-116 colon; 14.1 µM with MCF7 breast; 2.42 µM with CAKI-1 renal. In the experiment on LOX IMVI melanoma, this compound returned a TGI of 7.58 µM.
As to `CCOC(=O)Cn1nnc2ccc(Nc3nc4ccccc4nc3-c3ccccc3)cc21`, the TGI in the experiment on A549 NSCLC, in the experiment on SF-268 CNS, in the experiment with OVCAR-4 ovarian, in the experiment on OVCAR-8 ovarian, with HOP-92 NSCLC and in the experiment on HCT-15 colon was > 100 µM in each case. For the same compound, the TGI in the experiment on MDA-N, in the experiment with SF-295 CNS, with NCI-H460 lung, with HCT-116 colon, with MCF7 breast and in the experiment with CAKI-1 renal was > 100 µM each time. Besides, the TGI with LOX IMVI melanoma was > 100 µM.
Take `COc1cccc(C2c3cc4c(cc3OC3COC(=O)C32)OCO4)c1OC` (stereo not given): the TGI in the experiment on A549 NSCLC, in the experiment with SF-268 CNS, in the experiment on OVCAR-4 ovarian, in the experiment on OVCAR-8 ovarian, in the experiment on HOP-92 NSCLC and in the experiment on HCT-15 colon was > 100 µM each time. For the same compound, the TGI with MDA-N, in the experiment with SF-295 CNS, in the experiment with NCI-H460 lung, in the experiment with HCT-116 colon, with MCF7 breast and with CAKI-1 renal was > 100 µM each time. Besides, the TGI in the experiment with LOX IMVI melanoma was > 100 µM.
